Measured values reported in patent US20200087271A1, “N-CYCLOBUTYL-THIAZOL-5-CARBOXAMIDES WITH NEMATICIDAL ACTIVITY” (SYNGENTA PARTICIPATIONS AG, priority 2016, published 2020).
Like-named read-outs stand apart in the source and are kept apart here.

Key:
LogP (Table 1) = format: physicochemical
[1] = system: Meloidogyne spp. (root-knot nematode); assay: Meloidogyne spp. contact activity, preventive, cucumber seed in filter paper pouch; format: in vivo
Description: (§1) Filter papers (9 cm×4.5 cm) with a small pocket were placed into plastic pouches (12 cm×6 cm). One cucumber cv. Toshka seed was placed in the centre of the filter paper pocket of all the pouches needed for a test. […] Prior to application, the compound solution was prepared at twice the concentration required and the egg suspension is prepared with FORL nutrient solution with 3000 eggs/0.5 ml. After applying all the treatments, 3000 eggs (in 0.5 ml of FORL nutrient solution) were pipetted into the pouches. The pouches were incubated in a moist chamber for twelve days and watered regularly to maintain good filter paper moisture essential for the growing cucumber root system. After this period, the filter paper containing the germinated cucumber seedling was removed from the plastic pouch to assess the number of galls caused by Meloidogyne spp. per root system. Phytotoxicity was measured as a reduction of growth of the emerged cucumber seedling in comparison to the control.
as §1, with “system.” for “system. Phytotoxicity was measured as a reduction of growth of the emerged cucumber seedling in comparison to the control.”

M. incognita = assay: Meloidogyne spp. contact activity, preventive, cucumber in pots treated with WP10 suspension; format: in vivo
Description: Cucumber cv. Toshka seeds were sown directly into pots filled with a sandy substrate. Six days later pots were each treated with 5 ml of a WP10 suspension of the test compound. Hereafter, pots were inoculated with 3000 eggs of M. incognita. The trial was harvested fourteen days after trial application and inoculation. Root galling was assessed according to Zeck's gall index (Zeck W. M. (1971) Ein Bonitierungsschema zur Feldauswertung von Wurzelgallenbefall. Pflanzenschutznachrichten Bayer 24, 1: 144-147). Phytotoxicity was measured as a reduction of growth of the emerged cucumber seedling in comparison to the control.

[2] = system: Pratylenchus zeae (Corn Lesion Nematode); assay: Pratylenchus zeae contact activity, preventive, coated corn seeds; format: in vivo; details: seed treatment 1 mg Al/seed, corn cv. LG4620, 1500 nematodes, 7 days after inoculation
Description: Coated corn cv. LG4620 seeds were sown 1 cm deep into 45 ml pots with soil (7:3 w/w—a mixture of 70% field soil and 30% quartz Sand). Two days after sowing the pots were infested with 1500 nematodes (all stages) of Pratylenchus zeae within a 2 ml suspension in two holes to the left and right of the seed hole. Assessment of phytotoxicity (in %) and nematode numbers within the root system occurred 7 days after inoculation. The upper plant part was cut off and the roots were washed free of soil debris. Nematodes within the roots were stained with acid fuchsin stain solution. Nematodes within the roots were quantified under a dissecting scope at 40×. Seed treatment rate: 1 mg Al/seed

[3] = 1.6 ppm, cucumber pouch test, read-out: Mortality (%)
[4] = 8 ppm, cucumber pouch test, read-out: Mortality (%)
[5] = 40 ppm, cucumber pouch test, read-out: Mortality (%)
[6] = 200 ppm, cucumber pouch test, read-out: Mortality (%)
[7] = 0.16 ppm, cucumber pot test, read-out: Mortality (%)
[8] = 0.8 ppm, cucumber pot test, read-out: Mortality (%)
[9] = 4 ppm, cucumber pot test, read-out: Mortality (%)
[10] = 20 ppm, cucumber pot test, read-out: Mortality (%)

**Q.** Which logP (LogP (Table 1)) does the source give for O=C(N[C@H]1CC[C@H]1c1ccc(F)cc1F)c1scnc1C(F)F [Example 8, 4-(difluoromethyl)-N-[(1S,2S)-2-(2,4-difluorophenyl)cyclobutyl]thiazole-5-carboxamide] here?
**A.** 2.4

**Q.** Which mortality at 1.6 ppm [1, 3] does the source give for O=C(N[C@H]1CC[C@H]1c1ccc(Cl)cc1Cl)c1scnc1C(F)(F)F [Example 7, N-[(1S,2S)-2-(2,4-dichlorophenyl)cyclobutyl]-4-(trifluoromethyl)thiazole-5-carboxamide] here?
**A.** 77%

**Q.** And the mortality at 8 ppm [1, 4]?
**A.** 90%

**Q.** And the mortality at 40 ppm [1, 5]?
**A.** 98%

**Q.** What about the mortality at 200 ppm [1, 6] of the same compound?
**A.** 99%

**Q.** And the mortality at 0.16 ppm (M. incognita; [7])?
**A.** 14%

**Q.** What about the mortality at 0.8 ppm (M. incognita; [8]) of the same compound?
**A.** 14%

**Q.** What about the mortality at 4 ppm (M. incognita; [9]) of the same compound?
**A.** 60%

**Q.** What about the mortality at 20 ppm (M. incognita; [10]) of the same compound?
**A.** 99%

**Q.** What about the logP (LogP (Table 1)) of the same compound?
**A.** 3.44

**Q.** With O=C(N[C@H]1CC[C@H]1c1ccc(Cl)cc1)c1scnc1C(F)(F)F [Example 4, N-[(1S,2S)-2-(4-chlorophenyl)cyclobutyl]-4-(trifluoromethyl)thiazole-5-carboxamide] as the compound, how does the logP (LogP (Table 1)) read?
**A.** 3.21

**Q.** And the melting point?
**A.** 103 to 108 °C

**Q.** For O=C(N[C@H]1CC[C@H]1c1ccc(F)cc1F)c1scnc1C(F)(F)F [Example 6, N-[(1S,2S)-2-(2,4-difluorophenyl)cyclobutyl]-4-(trifluoromethyl)thiazole-5-carboxamide], which logP (LogP (Table 1)) is on record?
**A.** 2.71

**Q.** Which mortality at 1.6 ppm [1, 3] does the source give for O=C(N[C@H]1CC[C@H]1c1ccc(Cl)cc1Cl)c1scnc1C(F)F [Example 9, N-[(1S,2S)-2-(2,4-dichlorophenyl)cyclobutyl]-4-(difluoromethyl)thiazole-5-carboxamide] here?
**A.** 0%

**Q.** What about the mortality at 8 ppm [1, 4] of the same compound?
**A.** 64%

**Q.** And the mortality at 40 ppm [1, 5]?
**A.** 81%

**Q.** What about the mortality at 200 ppm [1, 6] of the same compound?
**A.** 98%

**Q.** What about the mortality at 0.16 ppm (M. incognita; [7]) of the same compound?
**A.** 22%

**Q.** What about the mortality at 0.8 ppm (M. incognita; [8]) of the same compound?
**A.** 61%

**Q.** And the mortality at 4 ppm (M. incognita; [9])?
**A.** 97%

**Q.** What about the mortality at 20 ppm (M. incognita; [10]) of the same compound?
**A.** 98%

**Q.** And the logP (LogP (Table 1))?
**A.** 3.25

**Q.** With O=C(N[C@H]1CC[C@H]1c1ccc(F)cc1Cl)c1scnc1C(F)(F)F [Example 5, N-[(1S,2S)-2-(2-chloro-4-fluoro-phenyl)cyclobutyl]-4-(trifluoromethyl)thiazole-5-carboxamide] as the compound, how does the “reduction of nematode population compared to the untreated control” value [2] read?
**A.** greater than 80%

**Q.** What about the logP (LogP (Table 1)) of the same compound?
**A.** 2.92

**Q.** Which results are given for Cc1nc(C(F)(F)F)c(C(=O)N[C@H]2CC[C@H]2c2ccc(Cl)cc2Cl)s1 [C, reference compound]?
**A.** mortality at 1.6 ppm [1]: 0%; mortality at 8 ppm [1]: 0%; mortality at 40 ppm [1]: 0%; mortality at 200 ppm [1]: 0%; mortality at 0.16 ppm (M. incognita): 0%; mortality at 0.8 ppm (M. incognita): 0%; mortality at 4 ppm (M. incognita): 0%; mortality at 20 ppm (M. incognita): 0%
